For one experiment, the target named is T1, h P2X2/3 (Homo sapiens, UniProt P56373+Q9UBL9).
T1 sequence (P56373 1-397): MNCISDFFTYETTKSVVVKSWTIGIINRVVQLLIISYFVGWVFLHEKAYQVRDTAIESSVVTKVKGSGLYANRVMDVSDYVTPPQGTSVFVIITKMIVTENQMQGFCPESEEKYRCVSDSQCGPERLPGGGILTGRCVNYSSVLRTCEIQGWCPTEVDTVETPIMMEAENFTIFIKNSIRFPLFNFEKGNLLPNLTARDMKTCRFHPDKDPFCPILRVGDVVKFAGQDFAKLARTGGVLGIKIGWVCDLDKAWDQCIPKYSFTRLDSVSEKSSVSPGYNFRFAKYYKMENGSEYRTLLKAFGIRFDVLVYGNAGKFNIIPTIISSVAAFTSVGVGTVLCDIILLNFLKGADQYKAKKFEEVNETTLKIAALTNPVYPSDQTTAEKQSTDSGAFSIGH
T1 sequence (Q9UBL9 1-471): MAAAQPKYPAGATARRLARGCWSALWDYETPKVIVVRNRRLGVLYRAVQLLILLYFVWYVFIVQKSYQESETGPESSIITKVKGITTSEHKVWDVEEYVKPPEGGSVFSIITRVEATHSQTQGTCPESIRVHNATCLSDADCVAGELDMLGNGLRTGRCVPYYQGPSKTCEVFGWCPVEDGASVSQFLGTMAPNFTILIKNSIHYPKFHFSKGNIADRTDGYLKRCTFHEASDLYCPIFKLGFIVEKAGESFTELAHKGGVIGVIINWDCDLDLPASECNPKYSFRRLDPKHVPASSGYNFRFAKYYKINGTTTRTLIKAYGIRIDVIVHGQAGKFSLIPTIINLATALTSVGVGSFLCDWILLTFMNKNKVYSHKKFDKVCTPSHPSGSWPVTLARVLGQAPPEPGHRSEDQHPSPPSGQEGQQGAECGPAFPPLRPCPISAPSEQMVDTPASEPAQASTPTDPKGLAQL
The experiment is described as follows: In vitro electrophysiology assay for P2X2/3 (same protocol, 10 μM ATP as agonist). Type of experiment: cell-based. The note with it: Table 7, range of activity. Here is the method:
Cells expressing P2X3 receptors were grown according to standard practice and maintained at 37° C. in a 5% humidified CO2 atmosphere. The cells were seeded into T175 flask 2 days prior to the day of the assay and dissociated from the flasks using TrypLE when grown to confluence of 80-90%. The dissociated cells were resuspended in serum free media at a cell density of 3×10^6 cells/ml and loaded onto the Sophion Qube automated patch-clamp system. The extracellular assay buffer contained 145 mM NaCl, 4 mM KCl, 2 mM CaCl2), 1 mM MgCl2, 10 mM HEPES, and 10 mM glucose at pH 7.4. The intracellular assay solution contained 140 mM CsF, 10 mM NaCl, 10 mM EGTA, 10 mM HEPES at pH 7.2. Agonist stock solutions were prepared in H2O and diluted in bath solution prior to use. All antagonists were prepared as 10 mM stock solutions in DMSO and diluted in bath solution prior to use. All experiments were performed under the whole-cell patch clamp configuration at room temperature with 384 individual cells being voltage clamped at −60 mV simultaneously on the Sophion Qube instrument. Two baseline responses were established with the application of α,β-MeATP (800 nM), with the subsequent agonist applications being washed out using extracellular assay buffer containing 0.5 U/ml apyrase. Following the second agonist application, antagonist was incubated in the absence of α,β-MeATP for 10 minutes. After antagonist preincubation, 800 nM α,β-MeATP and antagonist were co-administered to determine the inhibitory effect of the antagonist. One concentration of an antagonist was assessed against a single cell, with different concentrations of the antagonist applied to other cells on the 384 recording substrate. The control P2X3 current amplitude was taken from the peak current amplitude from the second agonist response prior to preincubation with antagonist. The peak P2X3 current amplitude in the presence of antagonist was used to calculate the inhibitory effect at each concentration of the antagonist according to the following equation: […]
Concentration-response curves were constructed from ten different concentrations with each concentration of antagonist tested on at least two individual cells. The concentration of the antagonist to inhibit P2X3 current by 50% (IC50) was determined by fitting the data with the following equation: […]
Where ‘a’ is minimum response, ‘b’ is maximum response, ‘c’ is IC50 and ‘d’ is Hill slope.
Representative compound of the present invention have been also tested for P2X2/3 receptor.
The same assay protocol was used for the P2X2/3 assay as the P2X3 assay with two modifications: 1) 10 μM ATP was used as the agonist; and 2) the mean current amplitude was measured seven seconds after the application of agonist.

In another experiment the target is T2, h P2X3 (Homo sapiens, UniProt P56373).
T2 sequence (P56373 1-397): T1 sequence (P56373 1-397)
The experiment is described as follows: In vitro electrophysiology assay for P2X3 (automated whole-cell patch clamp, Sophion Qube). Type of experiment: cell-based. As to conditions: range of activity. The method, boiled down:
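Whole-cell automated patch clamp at room temperature, cells held at −60 mV; after two 800 nM α,β-MeATP baseline responses, antagonist preincubated 10 min then co-applied with 800 nM α,β-MeATP. Inhibition of peak current vs second agonist response; IC50 from 10-concentration curves, one concentration per cell.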

[1] abbreviates: Table 6, inhibition of P2X3 current, agonist α,β-MeATP (800 nM).

For the molecule `COc1cc(-c2ncc(C)cn2)cc2c(N[C@H](C)c3noc(C)n3)ncnc12` [Example 7, 8-Methoxy-N-[(1R)-1-(5-methyl-1,2,4-oxadiazol-3-yl)ethyl]-6-(5-methylpyrimidin-2-yl)quinazolin-4-amine], the IC50 on h P2X2/3 fell in the range of 3160 to 31600 nM; at h P2X3 (setting [1]), 316 to 3160 nM; against h P2X3 (Table 7), 316 to 3160 nM.

With `C[C@@H](Nc1ncnc2c(-c3ccnnc3)cc(-c3ccc(F)cc3)cc12)c1cnc(C(F)(F)F)nc1` [Example 24, (R)-6-(4-fluorophenyl)-8-(pyridazin-4-yl)-N-(1-(2-(trifluoromethyl)pyrimidin-5-yl)ethyl)quinazolin-4-amine], the IC50 on h P2X2/3 was 3160 to 31600 nM; at h P2X3 (setting [1]), less than 316 nM; against h P2X3 (Table 7), less than 316 nM.

For the molecule `Cc1ccc(CNc2ncnc3c(OC4CCOCC4)cc(-c4ccc(F)cn4)cc23)nn1` [Example 30, 6-(5-fluoro-2-pyridyl)-N-[(6-methylpyridazin-3-yl)methyl]-8-tetrahydropyran-4-yloxy-quinazolin-4-amine], the IC50 was 3160 to 31600 nM at h P2X2/3, 316 to 3160 nM on h P2X3 (setting [1]) and 316 to 3160 nM against h P2X3 (Table 7).

Take `COc1cc(-n2cc(C)cn2)cc2c(N[C@H](C)c3ccc(C)nn3)ncnc12` [Example 99, (R)-8-methoxy-6-(4-methyl-1H-pyrazol-1-yl)-N-(1-(6-methylpyridazin-3-yl)ethyl)quinazolin-4-amine]: the IC50 on h P2X2/3 was 316 to 3160 nM; on h P2X3 (setting [1]), less than 316 nM; against h P2X3 (Table 7), less than 316 nM.

With `COc1cc(-c2ncc(C)s2)cc2c(NC(C)c3noc(C)n3)ncnc12` (stereo not drawn) [Example 107, 8-methoxy-N-(1-(5-methyl-1,2,4-oxadiazol-3-yl)ethyl)-6-(5-methylthiazol-2-yl)quinazolin-4-amine], the IC50 on h P2X2/3 is 316 to 3160 nM; on h P2X3 (setting [1]), less than 316 nM; on h P2X3 (Table 7) it was less than 316 nM.

With `COc1cc(-c2ncc(F)cn2)cc2c(NC(C)c3noc(C)n3)ncnc12` (stereo not drawn) [Example 108, 6-(5-fluoropyrimidin-2-yl)-8-methoxy-N-(1-(5-methyl-1,2,4-oxadiazol-3-yl)ethyl)quinazolin-4-amine], the figures for the IC50 at h P2X2/3, at h P2X3 (setting [1]) and at h P2X3 (Table 7) were 3160 to 31600 nM, 316 to 3160 nM and 316 to 3160 nM, respectively.

Take `COc1cc(-c2ncc(F)cn2)cc2c(NC(C)c3nnc(C)s3)ncnc12` (stereo not drawn) [Example 109, 6-(5-fluoropyrimidin-2-yl)-8-methoxy-N-(1-(5-methyl-1,3,4-thiadiazol-2-yl)ethyl)quinazolin-4-amine]: the IC50 at h P2X2/3 lay within 3160 to 31600 nM; at h P2X3 (setting [1]), 316 to 3160 nM; against h P2X3 (Table 7) it was 316 to 3160 nM.

Regarding `COc1cc(-c2ncc(C)s2)cc2c(NCc3cc(C)no3)ncnc12` [Example 111, 8-methoxy-N-[(3-methylisoxazol-5-yl)methyl]-6-(5-methylthiazol-2-yl)quinazolin-4-amine], the results for the IC50 at h P2X2/3, at h P2X3 (setting [1]) and at h P2X3 (Table 7) were 316 to 3160 nM, less than 316 nM and less than 316 nM, respectively.

`COc1cc(-c2ncc(C)s2)cc2c(NCc3nc(C(F)(F)F)no3)ncnc12` [Example 112, 8-methoxy-6-(5-methylthiazol-2-yl)-N-[[3-(trifluoromethyl)-1,2,4-oxadiazol-5-yl]methyl]quinazolin-4-amine]: the IC50 at h P2X2/3 is 316 to 3160 nM; on h P2X3 (setting [1]), less than 316 nM; on h P2X3 (Table 7) it was less than 316 nM.

On to `COc1cc(-c2ncc(C)s2)cc2c(NCc3nc(C)no3)ncnc12` [Example 113, 8-methoxy-N-[(3-methyl-1,2,4-oxadiazol-5-yl)methyl]-6-(5-methylthiazol-2-yl)quinazolin-4-amine], for which the IC50 at h P2X2/3 was 316 to 3160 nM; at h P2X3 (setting [1]), less than 316 nM; against h P2X3 (Table 7) it was less than 316 nM.

In the case of `COc1cc(-c2ncc(C)s2)cc2c(NCc3ccc(C(F)(F)F)cn3)ncnc12` [Example 116, 8-methoxy-6-(5-methylthiazol-2-yl)-N-((5-(trifluoromethyl)pyridin-2-yl)methyl)quinazolin-4-amine], the IC50 was 316 to 3160 nM at h P2X2/3, less than 316 nM on h P2X3 (setting [1]) and less than 316 nM against h P2X3 (Table 7).

For `COc1cc(-c2ncc(C)s2)cc2c(NCc3ccc(Cl)cn3)ncnc12` [Example 117, N-((5-chloropyridin-2-yl)methyl)-8-methoxy-6-(5-methylthiazol-2-yl)quinazolin-4-amine], the IC50 is 316 to 3160 nM at h P2X2/3, less than 316 nM on h P2X3 (setting [1]) and less than 316 nM against h P2X3 (Table 7).

As for `COc1cc(-c2ccc(C)cn2)cc2c(NCc3noc(C)n3)ncnc12` [Example 136, 8-methoxy-N-((5-methyl-1,2,4-oxadiazol-3-yl)methyl)-6-(5-methylpyridin-2-yl)quinazolin-4-amine], the IC50 lay in the range of 3160 to 31600 nM at h P2X2/3, 316 to 3160 nM on h P2X3 (setting [1]) and 316 to 3160 nM on h P2X3 (Table 7).

As to `COc1cc(-c2ccc(C)cn2)cc2c(NCc3cc(C)no3)ncnc12` [Example 137, 8-methoxy-N-((3-methylisoxazol-5-yl)methyl)-6-(5-methylpyridin-2-yl)quinazolin-4-amine], the figures for the concentration for half-maximal inhibition (IC50) on h P2X2/3, on h P2X3 (setting [1]) and against h P2X3 (Table 7) were 3160 to 31600 nM, less than 316 nM and less than 316 nM, respectively.

On to `COc1cc(-c2ccc(C)cn2)cc2c(NCc3nc(C)no3)ncnc12` [Example 142, 8-methoxy-N-[(3-methyl-1,2,4-oxadiazol-5-yl)methyl]-6-(5-methyl-2-pyridyl)quinazolin-4-amine], for which the IC50 is 3160 to 31600 nM at h P2X2/3, less than 316 nM at h P2X3 (setting [1]) and less than 316 nM against h P2X3 (Table 7).

With `COc1cc(-c2ccc(C)cn2)cc2c(NCc3nnc(C)o3)ncnc12` [Example 143, 8-methoxy-N-[(5-methyl-1,3,4-oxadiazol-2-yl)methyl]-6-(5-methyl-2-pyridyl)quinazolin-4-amine], the IC50 was 3160 to 31600 nM on h P2X2/3, less than 316 nM on h P2X3 (setting [1]) and less than 316 nM at h P2X3 (Table 7).

As to `COc1cc(-c2ncc(C)cn2)cc2c(NCc3nc(C(F)(F)F)no3)ncnc12` [Example 144, 8-methoxy-6-(5-methylpyrimidin-2-yl)-N-[[3-(trifluoromethyl)-1,2,4-oxadiazol-5-yl]methyl]quinazolin-4-amine], the IC50 at h P2X2/3 was 3160 to 31600 nM; at h P2X3 (setting [1]) it was less than 316 nM; against h P2X3 (Table 7), less than 316 nM.

Turning to `COc1cc(-c2ncc(C)cn2)cc2c(NCc3cnc(C(F)(F)F)nc3)ncnc12` [Example 145, 8-methoxy-6-(5-methylpyrimidin-2-yl)-N-[[2-(trifluoromethyl)pyrimidin-5-yl]methyl]quinazolin-4-amine], the IC50 is 316 to 3160 nM at h P2X2/3, less than 316 nM at h P2X3 (setting [1]) and less than 316 nM against h P2X3 (Table 7).

Consider `COc1cc(-c2ccc(F)cn2)cc2c(NCc3cnc(C(F)(F)F)nc3)ncnc12` [Example 146, 6-(5-fluoropyridin-2-yl)-8-methoxy-N-((2-(trifluoromethyl)pyrimidin-5-yl)methyl)quinazolin-4-amine], for which the IC50 was 3160 to 31600 nM on h P2X2/3, less than 316 nM on h P2X3 (setting [1]) and less than 316 nM against h P2X3 (Table 7).

(Values after patent US12466820B2, “Amino quinazoline derivatives as P2X3 inhibitors” (CHIESI FARMACEUTICI S.p.A., priority 2019, dated 2025).)
